Marks after values point to notes of the source that are not given here.
Columns and labels:
[1] = Iron concentration in plasma of young pigs after FeSO4 or FeSO4/AKG infusion to the duodenum or pelvic intestine; format: in vivo
Experimental: (§1) Investigations were performed on 3 piglets of the Swedish race Landrace weighting 30-35 kg. Animals originated from the university herd (Swedish Agricultural University, Dept. of Agricultural Biosystems and Technology, Lund). Young pigs were fed 2 times a day at the same time (9:00-10:00 a.m. and 3:00-4:00 p.m.) with a standard fodder (Vaxfor, Lantmanen, Sweden) with a daily dose 50 g/kg body weight. They were watered ad libitum. Animals were held separately in boxes with automatically regulated 12 hour's periods of day and night.
(§2) Sterile catheters and T-fistulas used in the experience were made of silicone tubes with maintained medical standards (Dow Cornning). Piglets were starved for 9-12 hours before the operation. Before the operation animals received a sedative drug—azoperone (Stresnil, 2 mg/kg body weight). Then the inhalation induction of general anaesthesia was performed (Fluothan 0.5-1.5 vol %). […] With the catheters inserted to the portal vein and the common carotid-artery the blood samples for later analyses were collected.
Two incisions were done: one 10-15 cm close to the right hunger fossa, second 2-3 cm between the brachial joint and the angle of the mandible. Duodenal fistula was placed behind the opening of the pancreatic duct to the duodenum. Pelvic T-fistula (int. diameter 3.18 mm and ext. diameter 4.64 mm—both fistulas) was introduced to the pelvic intestine at the end of the caeco-iliac ligament.
The catheter to the portal vein (int. diameter 0.64 mm and ext. diameter 1.19 mm) was introduced through the liver and fixed with several sutures (0-2 Catgut, Ethicon, England). The catheter placed in portal vein and both intestinal fistulas were brought out the body in the line of incision. After dissection of zygomatic vein the catheter was introduced in the cardiac direction on the depth of 7 cm. The vein was closed with the double ligature (0-3 silicone-, Ethicon, England) and brought outside the body with the surgical needle in the dorsal part of the neck. The abdomen and the neck wounds were closed with two layers of sutures: the peritoneum (only in the abdomen wound) and muscles were closed with twisted suture (0-0 Catgut , Ethicon), the skin was closed with the interrupted sutures (Suturamid 2-0, Ethicon). After operation young pigs were placed in separate boxes. During 5 postoperative days animals were fed twice a day, they received water ad libitum. The operation was performed by the skilled surgeon in accordance with surgical techniques.
Before infusion animals were starved. The daily dose of food was given during evening feeding at 3:00 p.m. All infusions were started at 9:00 a.m. Blood samples were taken 30 minutes before and 15, 30, 60 and 120 minutes after the infusion. 2. Infusions composition.

[2] = AKG concentration in plasma of young pigs after AKG or FeSO4/AKG infusion to the duodenum or pelvic intestine; format: in vivo; conditions: FeSO4 infused with AKG
Experimental: as §1, §2
Two incisions were done: one 10-15 cm close to the right hunger fossa, second 2-3 cm between the brachial joint and the angle of the mandible. Duodenal fistula was placed behind the opening of the pancreatic duct to the duodenum. […]

O=S(=O)([O-])[O-].[Fe+2] [FeSO4]
iron concentration in plasma ([1]; infusion to pelvic intestine, portal vein, 15 min): 18.00 ± 5.41^a μmol/l
iron concentration in plasma ([1]; infusion to pelvic intestine, portal vein, 30 min): 17.67 ± 6.53^a μmol/l
iron concentration in plasma ([1]; infusion to pelvic intestine, portal vein, 60 min): 16.83 ± 6.81^a μmol/l
iron concentration in plasma ([1]; infusion to pelvic intestine, portal vein, 120 min): 15.33 ± 7.18^a μmol/l
iron concentration in plasma ([1]; infusion to pelvic intestine, portal vein, -30 min (before infusion)): 19.17 ± 8.69^a μmol/l
iron concentration in plasma ([1]; infusion to pelvic intestine, zygomatic vein, 15 min): 18.83 ± 6.81^a μmol/l
iron concentration in plasma ([1]; infusion to pelvic intestine, zygomatic vein, 30 min): 18.83 ± 6.81^a μmol/l
iron concentration in plasma ([1]; infusion to pelvic intestine, zygomatic vein, 60 min): 18.00 ± 7.47^a μmol/l
iron concentration in plasma ([1]; infusion to pelvic intestine, zygomatic vein, 120 min): 15.67 ± 6.43^a μmol/l
iron concentration in plasma ([1]; infusion to pelvic intestine, zygomatic vein, -30 min (before infusion)): 19.67 ± 7.97^a μmol/l
iron concentration in plasma ([1]; infusion to the duodenum, portal vein, 15 min): 28.5 ± 4.09^b μmol/l
iron concentration in plasma ([1]; infusion to the duodenum, portal vein, 30 min): 37.67 ± 5.3^cb μmol/l
iron concentration in plasma ([1]; infusion to the duodenum, portal vein, 60 min): 40.17 ± 4.62^c μmol/l
iron concentration in plasma ([1]; infusion to the duodenum, portal vein, 120 min): 37.17 ± 4.37^c μmol/l
iron concentration in plasma ([1]; infusion to the duodenum, portal vein, -30 min (before infusion)): 16.33 ± 1.04^a μmol/l
iron concentration in plasma ([1]; infusion to the duodenum, zygomatic vein, 15 min): 29.17 ± 5.51^b μmol/l
iron concentration in plasma ([1]; infusion to the duodenum, zygomatic vein, 30 min): 39.50 ± 4.09^c μmol/l
iron concentration in plasma ([1]; infusion to the duodenum, zygomatic vein, 60 min): 43.0 ± 4.82^c μmol/l
iron concentration in plasma ([1]; infusion to the duodenum, zygomatic vein, 120 min): 39.5 ± 3.5^c μmol/l
iron concentration in plasma ([1]; infusion to the duodenum, zygomatic vein, -30 min (before infusion)): 18.2 ± 1.53^a μmol/l
effect on absorption of AKG from the intestine into the blood [2]: increases the absorption of AKG from the intestine into the blood
